# In PubChem BioAssay AID1963867 (Molecular Pharmacology Branch, DTP, NCI, 2024):
# Test system: KRAS-mutant PDC tumor spheroid with HUVEC/MSC, viability
# Experiment: Anticancer human tumor 327498-153-R-J2-PDC patient-derived uterine carcinosarcoma cell line growth inhibition [KRAS2]
# Conditions: for IC50: curve of first compound; for viability, T/C: stronger effect = lower value
# How it was run: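 Combination screen of spheroid viability in tumor-cell co-cultures with endothelial (HUVEC) and mesenchymal stem cell stroma. Each agent was tested in half-log dilutions, topping at clinical Cmax or at 10 microM without a known Cmax.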
# [1] = second compound 0.1 µM, first compound 0.0316 µM
# [2] = second compound 0.1 µM, first compound 0.1 µM
# [3] = second compound 0.1 µM, first compound 0.316 µM
# [4] = second compound 0.1 µM, first compound 1 µM
# [5] = second compound 0.1 µM, first compound 3.16 µM
# [6] = second compound 0.1 µM, first compound 10 µM
# [7] = second compound 0.316 µM, first compound 0.0316 µM
# [8] = second compound 0.316 µM, first compound 0.1 µM
# [9] = second compound 0.316 µM, first compound 0.316 µM
# [10] = second compound 0.316 µM, first compound 1 µM
# [11] = second compound 0.316 µM, first compound 3.16 µM
# [12] = second compound 0.316 µM, first compound 10 µM
# [13] = second compound 1 µM, first compound 0.0316 µM
# [14] = second compound 1 µM, first compound 0.1 µM
# [15] = second compound 1 µM, first compound 0.316 µM
# [16] = second compound 1 µM, first compound 1 µM
# [17] = second compound 1 µM, first compound 3.16 µM
# [18] = second compound 1 µM, first compound 10 µM
# [19] = second compound 3.16 µM, first compound 0.0316 µM
# [20] = second compound 3.16 µM, first compound 0.1 µM
# [21] = second compound 3.16 µM, first compound 0.316 µM
# [22] = second compound 3.16 µM, first compound 1 µM
# [23] = second compound 3.16 µM, first compound 3.16 µM
# [24] = second compound 3.16 µM, first compound 10 µM
# [25] = second compound 10 µM, first compound 0.0316 µM
# [26] = second compound 10 µM, first compound 0.1 µM
# 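Note: spheroids exposed to agents for seven days before reading.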
# 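Throughout, for viability, T/C: 100% = DMSO vehicle wells so lower means fewer viable cells.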
smiles,measurement,setting,value
Cn1nccc1Nc1nccc(-c2cc3c(s2)C(C)(C)N(CCN2CCOCC2)C3=O)n1 + CNCc1ccccc1-c1csc(C(C)Nc2nc(C)nc3cc(OC)c(OC)cc23)c1,IC50,second compound 0.1 µM,1640 nM
same,IC50,second compound 0.316 µM,1170 nM
same,IC50,second compound 1 µM,1030 nM
same,IC50,second compound 3.16 µM,< 31.6 nM
same,IC50,second compound 10 µM,< 31.6 nM
same,"viability, T/C",[1],73.9%
same,"viability, T/C",[2],76.8%
same,"viability, T/C",[3],64%
same,"viability, T/C",[4],55.7%
same,"viability, T/C",[5],43.5%
same,"viability, T/C",[6],35.9%
same,"viability, T/C",[7],77.7%
same,"viability, T/C",[8],62.6%
same,"viability, T/C",[9],64.6%
same,"viability, T/C",[10],50.2%
same,"viability, T/C",[11],42.2%
same,"viability, T/C",[12],32.5%
same,"viability, T/C",[13],62%
same,"viability, T/C",[14],62%
same,"viability, T/C",[15],58.6%
same,"viability, T/C",[16],48.2%
same,"viability, T/C",[17],41.3%
same,"viability, T/C",[18],34.1%
same,"viability, T/C",[19],0.13%
same,"viability, T/C",[20],0.11%
same,"viability, T/C",[21],0.1%
same,"viability, T/C",[22],2.37%
same,"viability, T/C",[23],0.1%
same,"viability, T/C",[24],0.18%
same,"viability, T/C",[25],0.14%
same,"viability, T/C",[26],0.68%
same,"viability, T/C","second compound 10 µM, first compound 0.316 µM",0.13%
same,"viability, T/C","second compound 10 µM, first compound 1 µM",0.38%
same,"viability, T/C","second compound 10 µM, first compound 3.16 µM",0.22%
same,"viability, T/C","second compound 10 µM, first compound 10 µM",0.23%
CC(C)n1nc(-c2ccc3oc(N)nc3c2)c2c(N)ncnc21 + CNCc1ccccc1-c1csc(C(C)Nc2nc(C)nc3cc(OC)c(OC)cc23)c1,IC50,second compound 0.1 µM,4.87 nM
same,IC50,second compound 0.316 µM,4.21 nM
same,IC50,second compound 1 µM,2.3 nM
same,IC50,second compound 3.16 µM,< 0.316 nM
same,IC50,second compound 10 µM,< 0.316 nM
same,"viability, T/C","second compound 0.1 µM, first compound 0.000316 µM",87.6%
same,"viability, T/C","second compound 0.1 µM, first compound 0.001 µM",80.3%
same,"viability, T/C","second compound 0.1 µM, first compound 0.00316 µM",59.9%
same,"viability, T/C","second compound 0.1 µM, first compound 0.01 µM",33.4%
same,"viability, T/C",[1],13.8%
same,"viability, T/C",[2],7.32%
same,"viability, T/C","second compound 0.316 µM, first compound 0.000316 µM",76.8%
same,"viability, T/C","second compound 0.316 µM, first compound 0.001 µM",73.2%
same,"viability, T/C","second compound 0.316 µM, first compound 0.00316 µM",56%
same,"viability, T/C","second compound 0.316 µM, first compound 0.01 µM",30.4%
same,"viability, T/C",[7],10.3%
same,"viability, T/C",[8],6.25%
same,"viability, T/C","second compound 1 µM, first compound 0.000316 µM",68.2%
same,"viability, T/C","second compound 1 µM, first compound 0.001 µM",63.9%
same,"viability, T/C","second compound 1 µM, first compound 0.00316 µM",43.4%
same,"viability, T/C","second compound 1 µM, first compound 0.01 µM",25.6%
same,"viability, T/C",[13],7.89%
same,"viability, T/C",[14],4.25%
same,"viability, T/C","second compound 3.16 µM, first compound 0.000316 µM",20.1%
same,"viability, T/C","second compound 3.16 µM, first compound 0.001 µM",0.14%
same,"viability, T/C","second compound 3.16 µM, first compound 0.00316 µM",1.09%
same,"viability, T/C","second compound 3.16 µM, first compound 0.01 µM",0.2%
same,"viability, T/C",[19],0.04%
same,"viability, T/C",[20],1.36%
same,"viability, T/C","second compound 10 µM, first compound 0.000316 µM",0.49%
same,"viability, T/C","second compound 10 µM, first compound 0.001 µM",0.14%
same,"viability, T/C","second compound 10 µM, first compound 0.00316 µM",0.93%
same,"viability, T/C","second compound 10 µM, first compound 0.01 µM",0.51%
same,"viability, T/C",[25],0.24%
same,"viability, T/C",[26],0.39%
COc1cc(Nc2ncc3c(n2)-c2ccc(Cl)cc2C(c2c(F)cccc2OC)=NC3)ccc1C(=O)O + C=CC(=O)N1CCN(c2nc(OCC3CCCN3C)nc3c2CCN(c2cccc4cccc(C)c24)C3)CC1CC#N,IC50,second compound 0.0316 µM,< 31.6 nM
same,IC50,second compound 0.1 µM,< 31.6 nM
same,IC50,second compound 0.316 µM,< 31.6 nM
same,IC50,second compound 1 µM,< 31.6 nM
same,IC50,second compound 3.16 µM,< 31.6 nM
same,"viability, T/C","second compound 0.0316 µM, first compound 0.0316 µM",13.7%
same,"viability, T/C","second compound 0.0316 µM, first compound 0.1 µM",11.9%
same,"viability, T/C","second compound 0.0316 µM, first compound 0.316 µM",11.5%
same,"viability, T/C","second compound 0.0316 µM, first compound 1 µM",9.41%
same,"viability, T/C","second compound 0.0316 µM, first compound 3.16 µM",11.3%
same,"viability, T/C","second compound 0.0316 µM, first compound 10 µM",10.4%
same,"viability, T/C",[1],12.7%
same,"viability, T/C",[2],11.3%
same,"viability, T/C",[3],10.2%
same,"viability, T/C",[4],9.02%
same,"viability, T/C",[5],12.1%
same,"viability, T/C",[6],10.4%
same,"viability, T/C",[7],10.2%
same,"viability, T/C",[8],8.78%
same,"viability, T/C",[9],8.53%
same,"viability, T/C",[10],8.2%
same,"viability, T/C",[11],9.27%
same,"viability, T/C",[12],9.77%
same,"viability, T/C",[13],10.3%
same,"viability, T/C",[14],8.65%
same,"viability, T/C",[15],7.42%
same,"viability, T/C",[16],6.83%
same,"viability, T/C",[17],7.63%
same,"viability, T/C",[18],6.7%
same,"viability, T/C",[19],2.49%
same,"viability, T/C",[20],2.27%
same,"viability, T/C",[21],1.67%
same,"viability, T/C",[22],0.13%
same,"viability, T/C",[23],0.95%
same,"viability, T/C",[24],0.23%
